Reference: PubChem BioAssay AID1963429 (Molecular Pharmacology Branch, DTP, NCI, 2024)
pIC50: −log10 of the molar value.

System: 126254-015-R-J1-PDC complex spheroid growth, % test/control
Assay: Anticancer human tumor 126254-015-R-J1-PDC patient-derived soft tissue sarcoma cell line growth inhibition [Asc]
Conditions: for pIC50: curve of first compound; for viability, T/C: stronger effect = lower value
Outline: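 Tumor cells were grown as complex spheroids with human endothelial cells (HUVEC) and human mesenchymal stem cells as stroma. Agents were tested alone and in combination, in half-log steps down from the clinical Cmax, or from 10 microM where Cmax was unknown.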

[1] = second compound 0.03 µM, first compound 0.000316 µM
[2] = second compound 0.03 µM, first compound 0.001 µM
[3] = second compound 0.03 µM, first compound 0.00316 µM
[4] = second compound 0.03 µM, first compound 0.01 µM
[5] = second compound 0.03 µM, first compound 0.0316 µM
[6] = second compound 0.03 µM, first compound 0.1 µM
[7] = second compound 0.0949 µM, first compound 0.000316 µM
[8] = second compound 0.0949 µM, first compound 0.001 µM
[9] = second compound 0.0949 µM, first compound 0.00316 µM
[10] = second compound 0.0949 µM, first compound 0.01 µM
[11] = second compound 0.0949 µM, first compound 0.0316 µM
[12] = second compound 0.0949 µM, first compound 0.1 µM
[13] = second compound 0.3 µM, first compound 0.000316 µM
[14] = second compound 0.3 µM, first compound 0.001 µM
[15] = second compound 0.3 µM, first compound 0.00316 µM
[16] = second compound 0.3 µM, first compound 0.01 µM
[17] = second compound 0.3 µM, first compound 0.0316 µM
[18] = second compound 0.3 µM, first compound 0.1 µM
[19] = second compound 0.949 µM, first compound 0.000316 µM
[20] = second compound 0.949 µM, first compound 0.001 µM
[21] = second compound 0.949 µM, first compound 0.00316 µM
[22] = second compound 0.949 µM, first compound 0.01 µM
[23] = second compound 0.949 µM, first compound 0.0316 µM
[24] = second compound 0.949 µM, first compound 0.1 µM
[25] = second compound 3 µM, first compound 0.000316 µM
[26] = second compound 3 µM, first compound 0.001 µM
[27] = second compound 3 µM, first compound 0.00316 µM
[28] = second compound 3 µM, first compound 0.01 µM
[29] = second compound 3 µM, first compound 0.0316 µM
[30] = second compound 3 µM, first compound 0.1 µM
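Note: spheroids exposed to compound for seven days.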
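Throughout, for viability, T/C: 100% = DMSO vehicle control wells.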

| SMILES | pIC50 (second compound 0.03 µM) | pIC50 (second compound 0.0949 µM) | pIC50 (second compound 0.3 µM) | pIC50 (second compound 0.949 µM) | pIC50 (second compound 3 µM) | viability, T/C [3] | viability, T/C [4] | viability, T/C [5] | viability, T/C [6] | viability, T/C [9] | viability, T/C [10] | viability, T/C [11] | viability, T/C [12] | viability, T/C [15] | viability, T/C [16] | viability, T/C [17] | viability, T/C [18] | viability, T/C [21] | viability, T/C [22] | viability, T/C [23] | other results |
| --- | --- | --- | --- | --- | --- | --- | --- | --- | --- | --- | --- | --- | --- | --- | --- | --- | --- | --- | --- | --- | --- |
| NC1CCC(NC2CC2c2ccccc2)CC1 (stereo not given) + CCN1C(C(=O)NC23CCC(C(=O)O)(CC2)CC3)C(c2cccc(Cl)c2F)C2(C(=O)Nc3cc(Cl)ccc32)C12CCCCC2 | < 7.00 | < 7.00 | < 7.00 | < 7.00 | < 7.00 | 99.1% | 93.1% | 79.7% | 83.1% | 93% | 83.5% | 75.5% | 85.9% | 82.7% | 79.7% | 78.3% | 88.4% | 97% | 82.5% | 81.5% | viability, T/C [1]: 94.7%; viability, T/C [2]: 97.4%; viability, T/C [7]: 85.6%; viability, T/C [8]: 81%; viability, T/C [13]: 87.3%; viability, T/C [14]: 89.4%; viability, T/C [19]: 90.1%; viability, T/C [20]: 92.3%; viability, T/C [24]: 83.7%; viability, T/C [25]: 90%; viability, T/C [26]: 96.9%; viability, T/C [27]: 78.1%; viability, T/C [28]: 74.5%; viability, T/C [29]: 84.1%; viability, T/C [30]: 85.2% |
| Cn1ncnc1[C@H]1c2n[nH]c(=O)c3cc(F)cc(c23)N[C@@H]1c1ccc(F)cc1 + CCN1C(C(=O)NC23CCC(C(=O)O)(CC2)CC3)C(c2cccc(Cl)c2F)C2(C(=O)Nc3cc(Cl)ccc32)C12CCCCC2 | < 7.00 | < 7.00 | < 7.00 | < 7.00 | < 7.00 | 88% | 96.5% | 83.9% | 75.4% | 88.4% | 78.2% | 84.7% | 68% | 104% | 81.7% | 80.7% | 75.2% | 95.6% | 86% | 95.8% | viability, T/C [1]: 88.6%; viability, T/C [2]: 108%; viability, T/C [7]: 101%; viability, T/C [8]: 102%; viability, T/C [13]: 97%; viability, T/C [14]: 111%; viability, T/C [19]: 95.3%; viability, T/C [20]: 90.9%; viability, T/C [24]: 90.5%; viability, T/C [25]: 96.3%; viability, T/C [26]: 103%; viability, T/C [27]: 89.9%; viability, T/C [28]: 84.8%; viability, T/C [29]: 82%; viability, T/C [30]: 81.6% |
| CCN1CCN(Cc2ccc(Nc3ncc(F)c(-c4cc(F)c5nc(C)n(C(C)C)c5c4)n3)nc2)CC1 + CCN1C(C(=O)NC23CCC(C(=O)O)(CC2)CC3)C(c2cccc(Cl)c2F)C2(C(=O)Nc3cc(Cl)ccc32)C12CCCCC2 | < 6.00 | < 6.00 | < 6.00 | < 6.00 | < 6.00 | 87.6% | 93.2% | 99.5% | 91.3% | 91.2% | 94.9% | 97% | 102% | 89% | 96.9% | 96.6% | 89.8% | 99.5% | 98.3% | 92.2% | viability, T/C (second compound 0.03 µM, first compound 0.316 µM): 105%; viability, T/C (second compound 0.03 µM, first compound 1 µM): 109%; viability, T/C (second compound 0.0949 µM, first compound 0.316 µM): 91.3%; viability, T/C (second compound 0.0949 µM, first compound 1 µM): 109%; viability, T/C (second compound 0.3 µM, first compound 0.316 µM): 101%; viability, T/C (second compound 0.3 µM, first compound 1 µM): 105%; viability, T/C [24]: 88.8%; viability, T/C (second compound 0.949 µM, first compound 0.316 µM): 122%; viability, T/C (second compound 0.949 µM, first compound 1 µM): 113%; viability, T/C [27]: 96.1%; viability, T/C [28]: 93.8%; viability, T/C [29]: 96.3%; viability, T/C [30]: 94.7%; viability, T/C (second compound 3 µM, first compound 0.316 µM): 106%; viability, T/C (second compound 3 µM, first compound 1 µM): 104% |
